How the values were obtained:
Type in all cases: in vivo
caspase 3 = experiment: Caspase 3 activity in brain cortex, kainic acid induced seizure rat model; conditions: KA seizure rat model, KA vs control, OBC 250 and 500 mg/kg
Method: (§1) Two-month-old male Sprague-Dawley rats were purchased from commercial vendor and housed at 25°±2° C., with the humidity maintained at 55%, wood chip bedding, on a 12:12 hour dark/light cycle, with free access to food and water. All animal procedures were carried out in accordance with NIH and Auburn University Animal Care and Use Committee guidelines. The rats were divided into four groups (1. Control, 2. Kainic acid (10 mg/kg), 3. LD (Low Dose)-composition containing OBC 250 mg/kg+Kainic acid, and 4. High Dose (HD)-composition containing OBC 500 mg/kg+Kainic acid). Composition containing OBC was mixed with powdered feed and administered orally for 2 weeks prior to kainic-acid administration. […] Neuroscience. 1982; 7(10):2525-36; Jinde et al., Lack of kainic acid-induced gamma oscillations predicts subsequent CA1 excitotoxic cell death. Eur J Neurosci. 2009; 30(6):1036-55; Medvedev et al., Kainic acid induces distinct types of epileptiform discharge with differential involvement of hippocampus and neocortex. Brain Res Bull. 2000; 52(2):89-98). Typically, Racine scores include the following stages:
(§2) For the complete management of epilepsy, it is imperative to reduce the incidence of seizures and also to effectively manage and correct the damage to the neurons which is induced by recurrent seizure activity. […]

caspase 1 = experiment: Caspase 1 activity in brain cortex, kainic acid induced seizure rat model; conditions: KA seizure rat model, KA vs control, OBC 250 and 500 mg/kg
Method: as §1, §2

cortex of the brain = experiment: Anti-oxidant parameters in brain cortex, kainic acid induced seizure rat model; conditions: KA seizure rat model, KA vs control
Method: as §1
For the complete management of epilepsy, it is imperative to reduce the incidence of seizures and also to effectively manage and correct the damage to the neurons which is induced by recurrent seizure activity. Drugs which reduced the incidence of seizures may not effectively manage and correct the clinical conditions resulting from seizures. Failure to correct and manage such effects results in neurodegeneration. The ability of a composition comprising oroxylin A, baicalein and chrysin (OBC) [250 mg/kg—low dose (LD) and 500 mg/kg—high dose (HD)] to management of neurotoxicity associated by epilepsy was tested in kainic acid induced seizure rat model. The biochemical parameters like ROS, hydrogen peroxide, protein carbonyl levels, nitrite levels, glutathione content, mitochondrial activity, and caspase activity were estimated in the cortex of the rat models.

[1] = OBC 250 and 500 mg/kg oral 2 weeks

## C=C(C)[C@H]1CN[C@H](C(=O)O)[C@H]1CC(=O)O [Kainic acid]
Caspase 3
  Activity of caspase 3 (FIG. 10): significantly increased
Caspase 1
  Activity of caspase 1 (FIG. 9): significantly increased
Cortex of the brain; OBC 250 and 500 mg/kg
  Glutathione levels (FIG. 7): decreased
Cortex of the brain; [1]
  Hydrogen peroxide levels (FIG. 4): significantly increased
  Lipid peroxidation (FIG. 5): significantly increased
  Nitrite content (FIG. 3): significantly increased
  Protein carbonyl content (FIG. 6): significantly increased
  ROS generation (FIG. 2): significantly increased

From patent publication US12465585B2, “Compositions for the management of seizure induced neurotoxicity” (SAMI-SABINSA GROUP LIMITED, priority 2018, dated 2025)
